According to ChEMBL document CHEMBL1201862, “PubChem BioAssay data set” (2004):
Activity calls are given as the source filed them.

Legend:
Caspase-3 = target: T1, Caspase-3 (Homo sapiens, UniProt P42574); type: functional;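 also: Dose-response selectivity test against caspase-3 for candidate inhibitors of sentrin-specific proteases (SENPs)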
T1 sequence (P42574 whole entry): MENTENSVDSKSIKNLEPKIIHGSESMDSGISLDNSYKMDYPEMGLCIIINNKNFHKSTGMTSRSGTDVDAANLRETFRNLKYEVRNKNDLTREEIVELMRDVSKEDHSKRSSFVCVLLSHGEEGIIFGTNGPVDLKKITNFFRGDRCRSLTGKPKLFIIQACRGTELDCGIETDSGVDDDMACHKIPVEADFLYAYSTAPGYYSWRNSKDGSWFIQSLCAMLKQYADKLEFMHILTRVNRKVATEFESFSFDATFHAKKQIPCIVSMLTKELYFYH

[1] = target: T2, Sentrin-specific protease 7 (Homo sapiens, UniProt Q9BQF6); type: functional;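 also: Luminescence-based dose-response confirmation of ultra-high-throughput screening hits, measuring inhibition of SENP7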
T2 sequence (Q9BQF6 whole entry): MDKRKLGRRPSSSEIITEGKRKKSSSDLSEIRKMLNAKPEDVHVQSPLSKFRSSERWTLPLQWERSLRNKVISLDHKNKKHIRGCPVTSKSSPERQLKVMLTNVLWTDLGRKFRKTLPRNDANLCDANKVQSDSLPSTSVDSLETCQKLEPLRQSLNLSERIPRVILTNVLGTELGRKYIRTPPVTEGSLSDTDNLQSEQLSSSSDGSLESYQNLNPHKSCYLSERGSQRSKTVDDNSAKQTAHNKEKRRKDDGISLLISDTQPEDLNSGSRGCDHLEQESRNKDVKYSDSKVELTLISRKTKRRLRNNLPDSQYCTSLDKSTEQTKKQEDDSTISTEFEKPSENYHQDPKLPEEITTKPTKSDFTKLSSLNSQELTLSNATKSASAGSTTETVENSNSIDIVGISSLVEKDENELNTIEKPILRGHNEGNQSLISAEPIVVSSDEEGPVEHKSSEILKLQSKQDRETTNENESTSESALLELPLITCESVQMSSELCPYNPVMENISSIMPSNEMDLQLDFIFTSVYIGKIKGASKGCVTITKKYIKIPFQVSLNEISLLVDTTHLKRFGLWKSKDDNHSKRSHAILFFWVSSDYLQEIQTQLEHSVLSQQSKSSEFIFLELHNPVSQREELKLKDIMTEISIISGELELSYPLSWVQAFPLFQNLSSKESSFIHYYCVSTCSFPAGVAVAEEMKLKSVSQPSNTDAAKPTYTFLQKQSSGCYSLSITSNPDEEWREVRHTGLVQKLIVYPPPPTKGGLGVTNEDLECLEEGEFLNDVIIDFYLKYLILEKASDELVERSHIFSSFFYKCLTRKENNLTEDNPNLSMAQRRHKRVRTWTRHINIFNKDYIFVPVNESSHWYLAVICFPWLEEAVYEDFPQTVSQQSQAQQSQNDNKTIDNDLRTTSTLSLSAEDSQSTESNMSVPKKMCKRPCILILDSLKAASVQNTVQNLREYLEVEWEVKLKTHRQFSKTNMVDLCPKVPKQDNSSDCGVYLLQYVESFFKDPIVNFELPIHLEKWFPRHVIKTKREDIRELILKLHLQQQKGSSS

[2] = target: T3, Sentrin-specific protease 6 (Homo sapiens, UniProt Q9GZR1); type: functional;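 also: Luminescence-based dose-response confirmatory assay of SENP6 inhibition, following up an ultra-high-throughput screen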
T3 sequence (Q9GZR1 whole entry): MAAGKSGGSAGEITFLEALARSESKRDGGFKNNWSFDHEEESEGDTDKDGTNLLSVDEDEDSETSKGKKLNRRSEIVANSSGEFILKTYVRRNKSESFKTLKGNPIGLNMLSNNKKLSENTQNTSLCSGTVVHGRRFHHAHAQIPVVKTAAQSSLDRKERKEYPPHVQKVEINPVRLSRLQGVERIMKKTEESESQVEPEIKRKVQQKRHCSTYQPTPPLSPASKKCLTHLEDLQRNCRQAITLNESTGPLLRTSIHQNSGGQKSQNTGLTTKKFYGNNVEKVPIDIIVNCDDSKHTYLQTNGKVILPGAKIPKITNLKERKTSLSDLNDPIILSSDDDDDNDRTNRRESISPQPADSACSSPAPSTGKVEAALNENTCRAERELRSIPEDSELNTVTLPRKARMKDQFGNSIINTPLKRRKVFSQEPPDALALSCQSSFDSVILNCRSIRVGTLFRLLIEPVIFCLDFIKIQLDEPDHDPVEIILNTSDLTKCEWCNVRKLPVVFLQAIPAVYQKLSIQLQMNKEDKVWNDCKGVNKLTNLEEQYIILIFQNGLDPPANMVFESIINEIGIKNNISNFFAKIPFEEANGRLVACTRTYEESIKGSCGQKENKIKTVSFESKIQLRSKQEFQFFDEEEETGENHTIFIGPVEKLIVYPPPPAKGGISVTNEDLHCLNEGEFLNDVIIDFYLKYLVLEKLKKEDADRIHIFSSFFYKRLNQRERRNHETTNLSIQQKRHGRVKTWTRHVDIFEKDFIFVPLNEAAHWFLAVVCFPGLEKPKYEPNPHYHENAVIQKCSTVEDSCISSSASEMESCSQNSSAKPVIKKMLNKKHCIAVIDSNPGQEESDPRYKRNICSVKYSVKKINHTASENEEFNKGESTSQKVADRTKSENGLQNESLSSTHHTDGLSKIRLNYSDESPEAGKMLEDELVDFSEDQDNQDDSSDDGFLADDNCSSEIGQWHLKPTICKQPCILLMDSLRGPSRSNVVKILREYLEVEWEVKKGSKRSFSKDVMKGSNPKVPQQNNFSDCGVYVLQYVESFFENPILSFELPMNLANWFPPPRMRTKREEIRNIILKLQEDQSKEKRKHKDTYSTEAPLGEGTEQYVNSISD

[3] = target: T4, Sentrin-specific protease 8 (Homo sapiens, UniProt Q96LD8); type: functional;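 also: luminescence read-out of SENP8 inhibition, dose-response confirmation following an ultra-high-throughput screen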
T4 sequence (Q96LD8 whole entry): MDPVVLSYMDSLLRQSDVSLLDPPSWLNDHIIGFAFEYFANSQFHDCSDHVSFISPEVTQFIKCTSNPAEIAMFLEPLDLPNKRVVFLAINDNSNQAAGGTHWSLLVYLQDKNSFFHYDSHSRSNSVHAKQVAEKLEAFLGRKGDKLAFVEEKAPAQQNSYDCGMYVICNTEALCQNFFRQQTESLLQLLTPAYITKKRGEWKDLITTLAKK

[4] = Luminescence-based cell-based high throughput dose response assay to identify activators of the DAF-12 from the parasite S. stercoralis (ssDAF-12).; type: functional
[5] = target: T5, Oxysterols receptor LXR-beta (Homo sapiens, UniProt P55055); assay: LXR agonists, Gal4 luciferase reporter, dose response, counter-screen for ssDAF-12 agonist project, cell-based, luminescence, HEK293, S. stercoralis campaign (AID 720737); type: functional; conditions: read-out: IC50 (the source's name)
T5 sequence (P55055 whole entry): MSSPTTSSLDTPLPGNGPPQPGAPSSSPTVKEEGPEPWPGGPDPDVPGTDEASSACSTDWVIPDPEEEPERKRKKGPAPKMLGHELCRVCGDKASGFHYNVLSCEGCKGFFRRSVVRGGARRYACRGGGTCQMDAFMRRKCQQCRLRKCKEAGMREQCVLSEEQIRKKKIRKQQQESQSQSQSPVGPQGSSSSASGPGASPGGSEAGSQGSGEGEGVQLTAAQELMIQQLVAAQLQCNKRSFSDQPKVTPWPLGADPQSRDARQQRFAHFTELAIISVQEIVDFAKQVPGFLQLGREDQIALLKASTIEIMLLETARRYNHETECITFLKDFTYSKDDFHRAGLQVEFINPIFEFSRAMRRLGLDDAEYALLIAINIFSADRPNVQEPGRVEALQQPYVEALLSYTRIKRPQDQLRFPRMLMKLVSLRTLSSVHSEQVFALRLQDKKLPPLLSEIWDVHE

[6] = target: T5, Oxysterols receptor LXR-beta; type: functional, cell-based
[7] = inhibitors of firefly luciferase expression or activity, dose response, H4 neuroglioma cells, luminescence (AID 1990); type: functional, cell-based
[8] = Luminescence Cell-Based Dose Response HTS to Identify Inhibitors of 5'UTR Stem-Loop Driven Prion Protein mRNA Translation in H4 Neuroglioblastoma Cells. [Related pubchem assays: 1827 (Project Summary), 1813 (Primary HTS)]; type: functional
[9] = inhibitors of SNCA 5'UTR-driven reporter translation, confirmation, H4 neuroglioma cells, luminescence (AID 1988); type: functional, cell-based
[10] = target: RNA-editing ligase 1, mitochondrial (Trypanosoma brucei brucei, UniProt P86926); assay: TbREL1 ligase inhibitors, dose response, biochemical, fluorescence, Trypanosoma brucei (AID 1117295); type: functional
[11] = target: T6, Mitochondrial peptide methionine sulfoxide reductase (Bos taurus, UniProt P54149); assay: Absorbance-based biochemical high throughput dose response assay for activators of Methionine sulfoxide reductase A (MsrA).; type: functional
T6 sequence (P54149 whole entry): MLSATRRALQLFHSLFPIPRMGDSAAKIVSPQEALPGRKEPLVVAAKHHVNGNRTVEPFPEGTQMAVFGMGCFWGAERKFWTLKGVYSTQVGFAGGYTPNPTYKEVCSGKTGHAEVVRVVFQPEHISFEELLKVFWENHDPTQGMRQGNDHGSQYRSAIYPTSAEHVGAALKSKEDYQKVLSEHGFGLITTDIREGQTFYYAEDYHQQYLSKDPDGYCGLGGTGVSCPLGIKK

Caspase-6 = target: T7, Caspase-6 (Homo sapiens, UniProt P55212); assay: human caspase-6 inhibitors, dose response, biochemical, VEID-R110 fluorescence, cherry-pick (AID 720632)
T7 sequence (P55212 whole entry): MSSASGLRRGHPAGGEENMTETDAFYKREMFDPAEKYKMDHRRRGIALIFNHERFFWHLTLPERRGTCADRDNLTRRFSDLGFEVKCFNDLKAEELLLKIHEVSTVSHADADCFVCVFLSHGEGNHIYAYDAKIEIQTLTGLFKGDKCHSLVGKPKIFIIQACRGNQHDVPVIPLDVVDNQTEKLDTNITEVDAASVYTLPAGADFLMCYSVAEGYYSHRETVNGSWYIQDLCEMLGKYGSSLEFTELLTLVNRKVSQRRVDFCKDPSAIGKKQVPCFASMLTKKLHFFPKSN

Caspase-9 = Caspase-9 (Homo sapiens, UniProt P55211); assay: caspase-9 enzyme inhibition, dose response, selectivity assay for caspase-6 inhibitor project, biochemical, fluorescence, plate reader, cherry-picked samples (AID 743293)
[12] = target: Tyrosyl-DNA phosphodiesterase 2 (Homo sapiens, UniProt O95551); assay: human TDP2 enzyme inhibitors, dose response, biochemical, epi absorbance, IC50 (AID 743297)
Caspase-8 = Caspase-8 (Homo sapiens, UniProt Q14790); assay: caspase-8 inhibition counter-screen, dose response, selectivity assay for caspase-6 inhibitor project, biochemical, Z-IETD-R110 fluorescence, cherry-picked samples (AID 743294)
Nonstructural protein 1 = Nonstructural protein 1 (Influenza A virus, UniProt Q194T2); type: functional, Influenza A virus (A/California/07/2009(H1N1))
[13] = HEK293T cell cytotoxicity, dose response, cytotoxicity control, CellTiter-Glo luminescence, dry powder, set 2 (AID 720595); type: functional, cell-based; conditions: HEK293
[14] = target: Muscarinic acetylcholine receptor M5 (Rattus norvegicus, UniProt P08911); assay: Discovery of Selective Novel Positive Allosteric Modulators (PAM) of the Muscarinic Receptor (M5) in CHO cells expressing Rattus Norvegicus M5 receptor.; type: functional, cell-based
[15] = target: T8, Muscarinic acetylcholine receptor M5 (Homo sapiens, UniProt P08912); assay: M5 positive allosteric modulator fold shift, mechanism study, cell-based, calcium fluorescence (AID 651776); type: functional
[16] = target: T8, Muscarinic acetylcholine receptor M5; assay: M5 receptor positive allosteric modulators, dose response, cell-based, concentration-response curve (AID 651878); type: functional
[17] = P. falciparum Dd2 growth inhibitors, dose response, SYBR Green, dry powder samples, set 9 (AID 1159568); type: functional, cell-based
[18] = target: Metabotropic glutamate receptor 7 (Homo sapiens, UniProt Q14831); assay: mGlu7 positive allosteric modulators, dose response, cell-based, calcium mobilization, Galpha15 (AID 743384); type: functional
Phospholipase D2 = Phospholipase D2 (Homo sapiens, UniProt O14939); assay: PLD2 Cellular Concentration Response Study.; type: functional
Phospholipase D1 = Phospholipase D1 (Homo sapiens, UniProt Q13393); assay: PLD1 Cellular Concentration Response Study.; type: functional
Sequence of Phospholipase D1 (Q13393 whole entry): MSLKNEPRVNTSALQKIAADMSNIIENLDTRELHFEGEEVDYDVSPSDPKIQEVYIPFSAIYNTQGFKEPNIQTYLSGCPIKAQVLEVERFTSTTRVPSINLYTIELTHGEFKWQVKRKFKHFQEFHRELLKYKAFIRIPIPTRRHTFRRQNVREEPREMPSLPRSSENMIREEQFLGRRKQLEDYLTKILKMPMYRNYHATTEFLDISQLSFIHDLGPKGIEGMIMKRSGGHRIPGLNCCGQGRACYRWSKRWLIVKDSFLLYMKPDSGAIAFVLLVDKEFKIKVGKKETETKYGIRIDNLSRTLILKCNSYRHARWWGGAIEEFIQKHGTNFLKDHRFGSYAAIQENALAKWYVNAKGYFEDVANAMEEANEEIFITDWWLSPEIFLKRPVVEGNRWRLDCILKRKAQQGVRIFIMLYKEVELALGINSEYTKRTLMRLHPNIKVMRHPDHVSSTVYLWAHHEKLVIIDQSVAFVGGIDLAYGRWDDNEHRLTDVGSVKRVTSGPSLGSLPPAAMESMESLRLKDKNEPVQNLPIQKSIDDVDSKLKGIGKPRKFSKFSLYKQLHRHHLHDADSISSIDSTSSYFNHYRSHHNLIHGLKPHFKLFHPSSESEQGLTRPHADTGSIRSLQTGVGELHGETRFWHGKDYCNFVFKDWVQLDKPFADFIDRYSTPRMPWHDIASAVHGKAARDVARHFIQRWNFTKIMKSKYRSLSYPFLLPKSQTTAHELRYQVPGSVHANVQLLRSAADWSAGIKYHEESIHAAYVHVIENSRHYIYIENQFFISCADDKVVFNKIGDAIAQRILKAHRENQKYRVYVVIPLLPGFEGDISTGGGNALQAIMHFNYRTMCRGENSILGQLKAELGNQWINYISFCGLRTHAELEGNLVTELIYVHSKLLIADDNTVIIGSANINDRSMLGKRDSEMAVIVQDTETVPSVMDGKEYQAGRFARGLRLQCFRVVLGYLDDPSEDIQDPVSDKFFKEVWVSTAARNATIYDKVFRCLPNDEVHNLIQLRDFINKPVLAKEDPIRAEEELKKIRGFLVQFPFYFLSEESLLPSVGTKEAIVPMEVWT

T8 sequence (P08912 whole entry): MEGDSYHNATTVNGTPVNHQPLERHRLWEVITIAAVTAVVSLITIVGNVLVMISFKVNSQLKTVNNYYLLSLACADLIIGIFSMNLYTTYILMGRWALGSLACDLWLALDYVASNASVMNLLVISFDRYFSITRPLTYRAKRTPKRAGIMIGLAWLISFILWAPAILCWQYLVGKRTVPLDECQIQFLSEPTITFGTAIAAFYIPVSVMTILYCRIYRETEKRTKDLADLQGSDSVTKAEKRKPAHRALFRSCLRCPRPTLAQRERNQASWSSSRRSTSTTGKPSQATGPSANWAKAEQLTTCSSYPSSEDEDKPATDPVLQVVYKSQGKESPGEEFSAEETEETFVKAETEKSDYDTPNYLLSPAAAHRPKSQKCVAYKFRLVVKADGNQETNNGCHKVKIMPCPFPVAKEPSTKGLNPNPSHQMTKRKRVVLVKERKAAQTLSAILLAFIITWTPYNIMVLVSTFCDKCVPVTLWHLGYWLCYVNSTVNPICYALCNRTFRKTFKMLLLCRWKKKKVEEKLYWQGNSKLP
Sequence of Phospholipase D2 (O14939 whole entry): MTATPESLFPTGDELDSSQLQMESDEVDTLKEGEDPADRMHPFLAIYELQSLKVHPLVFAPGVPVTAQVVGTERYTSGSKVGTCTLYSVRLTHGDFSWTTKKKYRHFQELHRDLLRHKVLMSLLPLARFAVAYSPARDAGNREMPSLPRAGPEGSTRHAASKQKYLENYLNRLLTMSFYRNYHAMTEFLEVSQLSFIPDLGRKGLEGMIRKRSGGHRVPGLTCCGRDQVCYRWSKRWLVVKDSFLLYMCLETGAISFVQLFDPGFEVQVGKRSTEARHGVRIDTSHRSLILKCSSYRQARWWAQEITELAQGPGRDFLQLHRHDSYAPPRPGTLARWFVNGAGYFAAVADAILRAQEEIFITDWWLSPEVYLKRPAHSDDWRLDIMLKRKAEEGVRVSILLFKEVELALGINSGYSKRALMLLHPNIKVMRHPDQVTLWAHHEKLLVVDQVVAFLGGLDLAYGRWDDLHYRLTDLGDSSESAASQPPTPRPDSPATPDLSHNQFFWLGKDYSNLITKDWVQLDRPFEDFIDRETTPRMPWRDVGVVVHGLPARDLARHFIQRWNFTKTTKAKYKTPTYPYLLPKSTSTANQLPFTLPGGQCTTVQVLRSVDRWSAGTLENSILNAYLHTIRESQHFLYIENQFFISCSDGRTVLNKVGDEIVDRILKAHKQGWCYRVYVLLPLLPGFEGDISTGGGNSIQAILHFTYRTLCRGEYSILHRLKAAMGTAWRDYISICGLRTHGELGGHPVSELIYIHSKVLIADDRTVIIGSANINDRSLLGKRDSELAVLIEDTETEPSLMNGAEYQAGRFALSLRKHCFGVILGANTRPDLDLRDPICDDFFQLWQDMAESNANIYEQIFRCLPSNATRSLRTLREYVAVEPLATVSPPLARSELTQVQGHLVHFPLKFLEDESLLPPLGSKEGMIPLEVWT
Sequence of Nonstructural protein 1 (Q194T2 whole entry): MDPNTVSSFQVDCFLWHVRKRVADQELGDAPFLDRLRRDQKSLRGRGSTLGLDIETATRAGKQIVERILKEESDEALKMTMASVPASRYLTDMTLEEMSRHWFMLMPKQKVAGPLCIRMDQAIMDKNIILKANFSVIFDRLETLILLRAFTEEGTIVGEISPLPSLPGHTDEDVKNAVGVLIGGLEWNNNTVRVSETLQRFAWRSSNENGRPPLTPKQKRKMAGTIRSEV
Sequence of Tyrosyl-DNA phosphodiesterase 2 (O95551 whole entry): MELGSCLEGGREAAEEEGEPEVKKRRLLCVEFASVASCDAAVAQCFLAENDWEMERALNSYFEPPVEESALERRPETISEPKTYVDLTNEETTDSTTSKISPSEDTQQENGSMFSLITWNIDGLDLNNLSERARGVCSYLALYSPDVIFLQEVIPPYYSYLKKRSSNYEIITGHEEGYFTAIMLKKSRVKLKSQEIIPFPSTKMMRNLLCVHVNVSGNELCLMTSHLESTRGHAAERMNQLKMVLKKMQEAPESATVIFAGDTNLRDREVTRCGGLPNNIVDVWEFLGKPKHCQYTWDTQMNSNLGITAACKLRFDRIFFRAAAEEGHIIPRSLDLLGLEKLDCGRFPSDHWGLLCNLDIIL
Sequence of RNA-editing ligase 1, mitochondrial (P86926 whole entry): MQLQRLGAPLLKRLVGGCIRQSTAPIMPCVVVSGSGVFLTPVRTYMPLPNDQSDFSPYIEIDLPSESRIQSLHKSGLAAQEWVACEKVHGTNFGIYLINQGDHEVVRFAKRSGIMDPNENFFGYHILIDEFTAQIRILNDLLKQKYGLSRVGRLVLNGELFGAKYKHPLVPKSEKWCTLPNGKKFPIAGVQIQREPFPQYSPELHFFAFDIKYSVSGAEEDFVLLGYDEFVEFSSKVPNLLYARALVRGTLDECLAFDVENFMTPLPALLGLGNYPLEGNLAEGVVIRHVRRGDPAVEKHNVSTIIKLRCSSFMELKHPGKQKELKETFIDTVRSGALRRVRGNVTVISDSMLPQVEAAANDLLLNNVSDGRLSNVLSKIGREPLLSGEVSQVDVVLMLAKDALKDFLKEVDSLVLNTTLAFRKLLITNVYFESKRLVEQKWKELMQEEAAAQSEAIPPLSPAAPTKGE
Sequence of Caspase-9 (P55211 1-315 limits assumed): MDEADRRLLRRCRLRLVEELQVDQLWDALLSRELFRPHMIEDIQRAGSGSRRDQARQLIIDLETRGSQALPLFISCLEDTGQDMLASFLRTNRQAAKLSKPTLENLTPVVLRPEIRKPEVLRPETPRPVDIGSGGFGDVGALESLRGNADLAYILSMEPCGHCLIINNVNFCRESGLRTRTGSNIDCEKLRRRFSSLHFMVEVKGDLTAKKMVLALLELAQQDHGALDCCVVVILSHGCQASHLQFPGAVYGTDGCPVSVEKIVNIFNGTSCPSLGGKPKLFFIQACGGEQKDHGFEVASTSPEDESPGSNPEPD
Sequence of Caspase-9 (P55211 331-416 limits assumed): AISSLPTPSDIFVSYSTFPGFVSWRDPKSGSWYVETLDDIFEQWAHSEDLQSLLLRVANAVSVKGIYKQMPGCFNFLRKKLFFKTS
Sequence of Caspase-8 (Q14790 217-374 limits assumed): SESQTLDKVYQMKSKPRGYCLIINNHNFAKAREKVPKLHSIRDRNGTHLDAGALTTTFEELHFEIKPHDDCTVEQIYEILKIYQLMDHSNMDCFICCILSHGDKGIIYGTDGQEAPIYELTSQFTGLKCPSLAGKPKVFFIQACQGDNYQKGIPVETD
Sequence of Caspase-8 (Q14790 385-479 limits assumed): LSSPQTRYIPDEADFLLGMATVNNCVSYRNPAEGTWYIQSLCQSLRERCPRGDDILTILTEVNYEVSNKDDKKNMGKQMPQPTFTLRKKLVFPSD
Sequence of Muscarinic acetylcholine receptor M5 (Rattus norvegicus, UniProt P08911) (P08911 whole entry): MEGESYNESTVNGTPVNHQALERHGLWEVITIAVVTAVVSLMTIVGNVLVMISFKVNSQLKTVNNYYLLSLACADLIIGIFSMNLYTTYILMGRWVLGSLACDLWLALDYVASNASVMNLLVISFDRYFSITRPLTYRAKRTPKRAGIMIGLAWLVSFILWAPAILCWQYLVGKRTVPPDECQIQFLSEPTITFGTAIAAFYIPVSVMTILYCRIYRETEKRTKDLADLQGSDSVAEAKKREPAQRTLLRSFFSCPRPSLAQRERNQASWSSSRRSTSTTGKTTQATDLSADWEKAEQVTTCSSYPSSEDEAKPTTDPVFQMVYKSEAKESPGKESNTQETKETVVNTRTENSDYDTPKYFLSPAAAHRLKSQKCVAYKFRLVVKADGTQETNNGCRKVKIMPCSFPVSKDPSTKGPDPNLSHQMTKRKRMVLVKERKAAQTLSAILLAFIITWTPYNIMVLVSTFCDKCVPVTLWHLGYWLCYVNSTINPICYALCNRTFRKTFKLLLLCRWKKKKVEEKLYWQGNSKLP

O=C(Nc1nc2ccccc2[nH]1)Nc1ccccc1F
IC50 (Caspase-3): 18.5 µM (active)
IC50 [1]: 7.28 µM (active)
IC50 [2]: 10.6 µM (active)
IC50 [3]: 14.5 µM (active)
IC50 [4]: > 67.5 µM (inactive)
EC50 [5]: > 67.5 µM (inactive)
EC50 [6]: > 67.5 µM (inactive)
EC50 (cells): > 67.5 µM (inactive)

O=c1cc(CN2CCc3ccccc32)nc2sccn12
EC50 [7]: 18.2 µM (active)
EC50 [8]: 0.231 µM (active)
EC50 [9]: 10.9 µM (active)
IC50 [10]: 22.9 µM (inactive)

COc1cc(NC(=O)COC(=O)c2ccc([N+](=O)[O-])s2)cc(OC)c1OC
IC50 (Caspase-3): 8.45 µM (active)
IC50 [1]: 5.51 µM (active)
IC50 [2]: 3.82 µM (active)
IC50 [3]: 3.88 µM (active)
EC50 [11]: 63.6 µM (inactive)
AC50 (Caspase-6): 2.44 µM (active)
AC50 (Caspase-9): 21.5 µM (active)
IC50 [12]: 48.3 µM (inactive)
AC50 (Caspase-8): 20.4 µM (active)

COC(=O)Cc1cc(O)n(-c2nc3ccccc3[nH]2)n1
IC50 (Nonstructural protein 1): 12.5 µM (active)
AC50 [13]: 30.4 µM (active)

O=C1C(=O)N(CCOc2ccccc2)c2ccc(OC(F)(F)F)cc21
EC50 [14]: 0.466 µM
EC50 [15]: 51.6 µM (active)
EC50 [16]: 0.55 µM

CC(C)NC(=O)NCC[C@@H]1CC[C@H](NS(=O)(=O)c2ccc(Oc3ccccc3)cc2)[C@@H](CO)O1
AC50 [17]: 32.1 µM (active)

COc1ccc(SCC(=O)c2cc(C)n(-c3ccc(OC(F)F)cc3)c2C)cc1
EC50 [18]: 3.16 µM (active)

O=C(NCCN1CCC2(CC1)C(=O)NCN2Cc1ccccn1)c1ccc2ccccc2c1
IC50 (Phospholipase D2): 0.08 µM (active)
IC50 (Phospholipase D1): 2.63 µM (active)
